Assays:
[1] = system: Tyrosine-protein kinase ABL1 (Homo sapiens), P00519 [M351T]; settings: Compound concentration 1000.0 nM
[2] = biological target: Serine/threonine-protein kinase 17A (Homo sapiens) (UniProt Q9UEE5); settings: Compound concentration 1000.0 nM
[3] = biological target: Dual specificity mitogen-activated protein kinase kinase 6 (Homo sapiens) (UniProt P52564); settings: Compound concentration 1000.0 nM
[4] = biological target: Misshapen-like kinase 1 (Homo sapiens) (UniProt Q8N4C8); settings: Compound concentration 1000.0 nM
[5] = biological target: Beta-1 adrenergic receptor (Homo sapiens) (UniProt P08588); settings: Compound concentration 10.0 uM
[6] = biological target: Adenosine receptor A1 (Homo sapiens) (UniProt P30542); experiment: A1 CEREP ligand profiling; settings: Compound concentration 10.0 uM
[7] = biological target: Adenosine receptor A3 (Homo sapiens) (UniProt P0DMS8); experiment: A3 CEREP ligand profiling; settings: Compound concentration 10.0 uM
Adenosine receptor A3 (Homo sapiens), sequence (P0DMS8 whole entry): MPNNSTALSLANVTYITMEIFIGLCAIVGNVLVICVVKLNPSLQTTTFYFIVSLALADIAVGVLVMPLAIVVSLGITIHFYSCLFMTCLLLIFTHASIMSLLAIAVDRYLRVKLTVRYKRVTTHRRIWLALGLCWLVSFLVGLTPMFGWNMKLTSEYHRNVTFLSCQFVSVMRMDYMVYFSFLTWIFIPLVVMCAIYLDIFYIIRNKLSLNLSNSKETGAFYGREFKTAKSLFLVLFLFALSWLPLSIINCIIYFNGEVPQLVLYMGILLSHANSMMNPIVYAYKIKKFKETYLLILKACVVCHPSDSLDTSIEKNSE

[8] = biological target: Beta-2 adrenergic receptor (Homo sapiens) (UniProt P07550); experiment: beta 2 CEREP ligand profiling; settings: Compound concentration 10.0 uM
Beta-2 adrenergic receptor (Homo sapiens), sequence (P07550 whole entry, looked up): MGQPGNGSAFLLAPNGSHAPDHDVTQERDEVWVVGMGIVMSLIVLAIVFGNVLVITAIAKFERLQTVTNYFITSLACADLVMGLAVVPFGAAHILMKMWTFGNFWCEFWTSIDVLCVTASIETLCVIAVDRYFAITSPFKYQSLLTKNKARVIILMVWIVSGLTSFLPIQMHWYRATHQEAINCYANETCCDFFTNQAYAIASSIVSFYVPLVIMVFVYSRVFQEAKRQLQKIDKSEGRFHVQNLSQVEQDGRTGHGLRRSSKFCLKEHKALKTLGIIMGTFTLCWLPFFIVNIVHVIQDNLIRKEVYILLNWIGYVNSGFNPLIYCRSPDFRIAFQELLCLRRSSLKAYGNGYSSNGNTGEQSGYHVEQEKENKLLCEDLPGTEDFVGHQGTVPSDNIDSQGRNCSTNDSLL

[9] = biological target: Cannabinoid receptor 1 (Homo sapiens) (UniProt P21554); experiment: CB1 (h) CEREP ligand profiling; settings: Compound concentration 10.0 uM
[10] = biological target: Gastrin/cholecystokinin type B receptor (Homo sapiens) (UniProt P32239); experiment: CCKB (h) CEREP ligand profiling; settings: Compound concentration 10.0 uM
[11] = biological target: D(2) dopamine receptor (Homo sapiens) (UniProt P14416); experiment: D2S (h) CEREP ligand profiling; settings: Compound concentration 10.0 uM
D(2) dopamine receptor (Homo sapiens), sequence (P14416 whole entry): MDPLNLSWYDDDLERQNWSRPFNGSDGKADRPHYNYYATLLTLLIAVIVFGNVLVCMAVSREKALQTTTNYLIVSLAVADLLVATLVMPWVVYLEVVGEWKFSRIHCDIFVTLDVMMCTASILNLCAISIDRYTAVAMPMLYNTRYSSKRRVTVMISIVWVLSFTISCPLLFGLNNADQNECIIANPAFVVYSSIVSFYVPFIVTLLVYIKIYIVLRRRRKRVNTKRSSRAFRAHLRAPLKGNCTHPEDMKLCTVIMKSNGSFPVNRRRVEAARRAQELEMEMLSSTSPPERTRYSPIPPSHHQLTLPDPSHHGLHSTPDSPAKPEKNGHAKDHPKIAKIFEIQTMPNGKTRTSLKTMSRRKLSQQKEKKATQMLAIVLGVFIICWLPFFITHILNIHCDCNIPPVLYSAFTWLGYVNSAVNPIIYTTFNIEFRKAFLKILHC

[12] = GABA CEREP ligand profiling; settings: Compound concentration 10.0 uM
[13] = biological target: C-C chemokine receptor type 1 (Homo sapiens) (UniProt P32246); experiment: CCR1 (h) CEREP ligand profiling; settings: Compound concentration 10.0 uM
[14] = biological target: Histamine H2 receptor (Homo sapiens) (UniProt P25021); experiment: H2 (h) CEREP ligand profiling; settings: Compound concentration 10.0 uM
[15] = biological target: T1, Muscarinic acetylcholine receptor M4 (Homo sapiens) (UniProt P08173); experiment: M4 (h) CEREP ligand profiling; settings: Compound concentration 10.0 uM
T1 sequence (whole entry): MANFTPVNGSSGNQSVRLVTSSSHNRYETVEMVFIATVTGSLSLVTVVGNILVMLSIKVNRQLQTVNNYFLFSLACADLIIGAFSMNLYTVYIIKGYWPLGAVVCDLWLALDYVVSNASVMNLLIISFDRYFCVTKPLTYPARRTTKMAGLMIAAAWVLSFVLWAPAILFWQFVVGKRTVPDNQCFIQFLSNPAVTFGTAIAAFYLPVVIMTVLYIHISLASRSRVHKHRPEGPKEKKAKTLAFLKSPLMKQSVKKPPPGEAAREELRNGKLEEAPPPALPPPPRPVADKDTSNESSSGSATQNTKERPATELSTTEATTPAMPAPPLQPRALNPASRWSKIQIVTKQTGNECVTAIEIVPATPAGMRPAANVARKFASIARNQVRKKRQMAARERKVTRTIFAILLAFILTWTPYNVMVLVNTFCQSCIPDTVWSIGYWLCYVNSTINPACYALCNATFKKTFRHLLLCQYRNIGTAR

[16] = biological target: Delta-type opioid receptor (Homo sapiens) (UniProt P41143); experiment: delta 2 (h) CEREP ligand profiling; settings: Compound concentration 10.0 uM
Delta-type opioid receptor (Homo sapiens), sequence (P41143 whole entry): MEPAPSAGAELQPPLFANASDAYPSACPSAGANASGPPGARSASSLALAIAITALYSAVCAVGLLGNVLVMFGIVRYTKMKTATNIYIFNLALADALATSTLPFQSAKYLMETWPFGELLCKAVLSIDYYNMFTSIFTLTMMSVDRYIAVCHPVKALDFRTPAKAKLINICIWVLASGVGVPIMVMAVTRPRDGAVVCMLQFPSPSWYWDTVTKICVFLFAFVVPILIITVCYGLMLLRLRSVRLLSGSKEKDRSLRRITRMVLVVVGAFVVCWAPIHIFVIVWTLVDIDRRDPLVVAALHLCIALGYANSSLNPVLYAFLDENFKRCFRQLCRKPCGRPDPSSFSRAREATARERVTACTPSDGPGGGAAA

[17] = biological target: Mu-type opioid receptor (Homo sapiens) (UniProt P35372); experiment: mu (h) (MOP) CEREP ligand profiling; settings: Compound concentration 10.0 uM
[18] = biological target: Thromboxane A2 receptor (Homo sapiens) (UniProt P21731); experiment: TXA2/PGH2 CEREP ligand profiling; settings: Compound concentration 10.0 uM
Thromboxane A2 receptor (Homo sapiens), sequence (P21731 whole entry): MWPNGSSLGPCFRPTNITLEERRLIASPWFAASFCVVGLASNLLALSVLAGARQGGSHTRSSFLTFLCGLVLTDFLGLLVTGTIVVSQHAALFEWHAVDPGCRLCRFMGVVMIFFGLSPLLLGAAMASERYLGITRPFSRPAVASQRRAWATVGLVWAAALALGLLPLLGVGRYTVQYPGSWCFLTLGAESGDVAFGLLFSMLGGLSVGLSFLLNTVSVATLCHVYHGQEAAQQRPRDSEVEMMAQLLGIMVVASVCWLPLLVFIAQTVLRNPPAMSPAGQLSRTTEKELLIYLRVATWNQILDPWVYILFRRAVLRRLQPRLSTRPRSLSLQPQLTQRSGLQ

[19] = biological target: 5-hydroxytryptamine receptor 1B (Homo sapiens) (UniProt P28222); experiment: 5-HT1B CEREP ligand profiling; settings: Compound concentration 10.0 uM
5-hydroxytryptamine receptor 1B (Homo sapiens), sequence (P28222 whole entry): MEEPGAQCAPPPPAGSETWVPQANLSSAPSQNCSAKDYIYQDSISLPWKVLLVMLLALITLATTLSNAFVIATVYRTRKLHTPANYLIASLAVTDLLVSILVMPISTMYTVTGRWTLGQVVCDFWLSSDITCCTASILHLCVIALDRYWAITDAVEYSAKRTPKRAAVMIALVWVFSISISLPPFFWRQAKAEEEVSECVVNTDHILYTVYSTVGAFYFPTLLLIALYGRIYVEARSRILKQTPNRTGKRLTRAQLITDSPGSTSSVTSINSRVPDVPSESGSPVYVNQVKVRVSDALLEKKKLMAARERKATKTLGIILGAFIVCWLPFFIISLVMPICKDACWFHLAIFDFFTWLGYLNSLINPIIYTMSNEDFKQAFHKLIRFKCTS

[20] = biological target: Somatostatin receptor (Homo sapiens) (UniProt P35346+P30874+P31391+P30872+P32745); experiment: sst CEREP ligand profiling; type: protein assay; settings: Compound concentration 10.0 uM
[21] = K+ channel CEREP ligand profiling; settings: Compound concentration 10.0 uM
[22] = biological target: Adenosine receptor A2a (Homo sapiens) (UniProt P29274); experiment: A2A (h) CEREP ligand profiling; settings: Compound concentration 10.0 uM
Adenosine receptor A2a (Homo sapiens), sequence (P29274 whole entry): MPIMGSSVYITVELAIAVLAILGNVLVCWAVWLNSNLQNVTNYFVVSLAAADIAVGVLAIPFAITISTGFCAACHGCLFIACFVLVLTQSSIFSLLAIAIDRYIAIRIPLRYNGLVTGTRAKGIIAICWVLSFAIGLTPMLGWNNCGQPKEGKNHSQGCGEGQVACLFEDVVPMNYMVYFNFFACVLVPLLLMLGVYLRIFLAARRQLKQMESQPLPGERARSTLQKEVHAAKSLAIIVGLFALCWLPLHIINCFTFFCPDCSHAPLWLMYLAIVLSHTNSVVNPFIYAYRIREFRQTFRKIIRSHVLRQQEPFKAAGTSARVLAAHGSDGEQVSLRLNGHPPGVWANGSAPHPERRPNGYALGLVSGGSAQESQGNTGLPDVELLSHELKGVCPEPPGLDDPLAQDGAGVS

[23] = biological target: Adrenergic receptor alpha-1 (Homo sapiens) (UniProt P35348+P25100+P35368); experiment: alpha1 CEREP ligand profiling; type: protein assay; settings: Compound concentration 10.0 uM
[24] = biological target: Type-1 angiotensin II receptor (Homo sapiens) (UniProt P30556); experiment: AT1 (h) CEREP ligand profiling; settings: Compound concentration 10.0 uM
Type-1 angiotensin II receptor (Homo sapiens), sequence (P30556 whole entry): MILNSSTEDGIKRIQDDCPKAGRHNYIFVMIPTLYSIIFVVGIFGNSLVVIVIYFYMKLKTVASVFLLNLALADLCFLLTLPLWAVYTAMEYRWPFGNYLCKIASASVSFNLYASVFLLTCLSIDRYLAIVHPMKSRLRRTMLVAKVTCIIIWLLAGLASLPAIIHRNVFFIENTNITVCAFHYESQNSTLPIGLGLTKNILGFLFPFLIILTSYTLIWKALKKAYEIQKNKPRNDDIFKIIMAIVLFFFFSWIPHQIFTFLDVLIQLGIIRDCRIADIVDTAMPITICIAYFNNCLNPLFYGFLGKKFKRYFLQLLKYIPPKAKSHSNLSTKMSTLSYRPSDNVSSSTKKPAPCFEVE

[25] = biological target: Bombesin receptor (Homo sapiens) (UniProt P28336+P32247+P30550); experiment: BB (non-select) CEREP ligand profiling; type: protein assay; settings: Compound concentration 10.0 uM
[26] = biological target: Cholecystokinin receptor type A (Homo sapiens) (UniProt P32238); experiment: CCKA (h) CEREP ligand profiling; settings: Compound concentration 10.0 uM
[27] = biological target: Endothelin receptor type B (Homo sapiens) (UniProt P24530); experiment: ETB (h) CEREP ligand profiling; settings: Compound concentration 10.0 uM
[28] = biological target: Tumor necrosis factor (Homo sapiens) (UniProt P01375); experiment: TNF-alpha (h) CEREP ligand profiling; settings: Compound concentration 10.0 uM
Tumor necrosis factor (Homo sapiens), sequence (P01375 whole entry): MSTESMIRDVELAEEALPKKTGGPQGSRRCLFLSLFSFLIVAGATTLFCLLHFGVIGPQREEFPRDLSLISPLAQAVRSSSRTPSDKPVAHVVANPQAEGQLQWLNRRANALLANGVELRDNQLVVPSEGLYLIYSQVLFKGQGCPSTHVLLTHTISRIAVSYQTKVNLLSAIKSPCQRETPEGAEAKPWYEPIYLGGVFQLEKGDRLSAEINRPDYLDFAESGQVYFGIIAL

[29] = biological target: Histamine H1 receptor (Homo sapiens) (UniProt P35367); experiment: H1 (h) CEREP ligand profiling; settings: Compound concentration 10.0 uM
Histamine H1 receptor (Homo sapiens), sequence (P35367 whole entry): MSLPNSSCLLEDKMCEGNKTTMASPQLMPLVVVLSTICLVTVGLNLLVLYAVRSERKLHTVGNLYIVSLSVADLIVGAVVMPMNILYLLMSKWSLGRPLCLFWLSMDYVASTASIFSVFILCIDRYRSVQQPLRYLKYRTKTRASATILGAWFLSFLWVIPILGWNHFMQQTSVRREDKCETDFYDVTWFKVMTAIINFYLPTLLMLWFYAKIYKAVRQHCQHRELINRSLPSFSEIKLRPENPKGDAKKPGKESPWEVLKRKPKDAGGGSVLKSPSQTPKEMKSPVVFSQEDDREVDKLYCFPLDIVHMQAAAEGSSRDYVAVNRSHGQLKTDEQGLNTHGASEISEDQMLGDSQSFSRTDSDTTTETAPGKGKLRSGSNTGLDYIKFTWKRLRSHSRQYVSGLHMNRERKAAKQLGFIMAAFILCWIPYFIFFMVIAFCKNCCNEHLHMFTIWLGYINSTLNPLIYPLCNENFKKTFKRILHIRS

[30] = biological target: Muscarinic acetylcholine receptor M3 (Homo sapiens) (UniProt P20309); experiment: M3 (h) CEREP ligand profiling; settings: Compound concentration 10.0 uM
Muscarinic acetylcholine receptor M3 (Homo sapiens), sequence (P20309 whole entry, looked up): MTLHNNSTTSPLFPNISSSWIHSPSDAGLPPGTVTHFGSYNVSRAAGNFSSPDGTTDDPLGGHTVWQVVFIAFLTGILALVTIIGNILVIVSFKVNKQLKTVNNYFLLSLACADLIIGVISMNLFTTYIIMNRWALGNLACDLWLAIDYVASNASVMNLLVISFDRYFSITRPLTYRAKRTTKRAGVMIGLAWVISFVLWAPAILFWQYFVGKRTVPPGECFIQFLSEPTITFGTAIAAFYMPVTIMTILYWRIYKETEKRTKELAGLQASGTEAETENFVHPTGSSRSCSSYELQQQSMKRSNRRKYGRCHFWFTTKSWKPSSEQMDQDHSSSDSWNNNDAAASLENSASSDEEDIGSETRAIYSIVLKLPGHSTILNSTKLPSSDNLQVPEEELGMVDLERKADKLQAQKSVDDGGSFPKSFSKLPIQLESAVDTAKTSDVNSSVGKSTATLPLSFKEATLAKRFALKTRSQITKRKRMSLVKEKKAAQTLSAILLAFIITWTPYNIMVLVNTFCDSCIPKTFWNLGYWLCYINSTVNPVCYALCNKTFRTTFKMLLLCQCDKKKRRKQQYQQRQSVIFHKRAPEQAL

[31] = biological target: T2, Muscarinic acetylcholine receptor M5 (Homo sapiens) (UniProt P08912); experiment: M5 (h) CEREP ligand profiling; settings: Compound concentration 10.0 uM
T2 sequence (whole entry): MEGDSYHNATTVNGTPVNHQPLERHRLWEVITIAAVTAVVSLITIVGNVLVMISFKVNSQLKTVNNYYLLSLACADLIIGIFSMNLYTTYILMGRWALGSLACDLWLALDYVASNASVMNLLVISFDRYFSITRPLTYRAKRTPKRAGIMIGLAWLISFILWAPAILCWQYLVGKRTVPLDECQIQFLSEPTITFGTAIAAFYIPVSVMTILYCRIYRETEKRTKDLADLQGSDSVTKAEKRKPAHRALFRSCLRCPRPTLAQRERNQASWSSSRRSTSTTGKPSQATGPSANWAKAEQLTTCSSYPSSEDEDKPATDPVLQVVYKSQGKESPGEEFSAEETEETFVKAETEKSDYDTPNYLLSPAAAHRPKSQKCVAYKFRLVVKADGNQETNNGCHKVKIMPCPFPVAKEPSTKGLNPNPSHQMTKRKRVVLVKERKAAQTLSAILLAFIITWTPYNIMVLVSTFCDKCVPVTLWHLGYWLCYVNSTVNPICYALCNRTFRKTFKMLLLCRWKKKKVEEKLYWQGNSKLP

[32] = biological target: Nociceptin receptor (Homo sapiens) (UniProt P41146); experiment: ORL1 (h) (NOP) CEREP ligand profiling; settings: Compound concentration 10.0 uM
[33] = biological target: 5-hydroxytryptamine receptor 2A (Homo sapiens) (UniProt P28223); experiment: 5-HT2A (h) CEREP ligand profiling; settings: Compound concentration 10.0 uM
[34] = biological target: Sigma non-opioid intracellular receptor 1 (Homo sapiens, UniProt Q99720); experiment: sigma CEREP ligand profiling; settings: Compound concentration 10.0 uM
[35] = biological target: Sodium-dependent dopamine transporter (Homo sapiens) (UniProt Q01959); experiment: DA transporter(h) CEREP ligand profiling; settings: Compound concentration 10.0 uM

Serine/threonine-protein kinase 17A (Homo sapiens), sequence (Q9UEE5 whole entry): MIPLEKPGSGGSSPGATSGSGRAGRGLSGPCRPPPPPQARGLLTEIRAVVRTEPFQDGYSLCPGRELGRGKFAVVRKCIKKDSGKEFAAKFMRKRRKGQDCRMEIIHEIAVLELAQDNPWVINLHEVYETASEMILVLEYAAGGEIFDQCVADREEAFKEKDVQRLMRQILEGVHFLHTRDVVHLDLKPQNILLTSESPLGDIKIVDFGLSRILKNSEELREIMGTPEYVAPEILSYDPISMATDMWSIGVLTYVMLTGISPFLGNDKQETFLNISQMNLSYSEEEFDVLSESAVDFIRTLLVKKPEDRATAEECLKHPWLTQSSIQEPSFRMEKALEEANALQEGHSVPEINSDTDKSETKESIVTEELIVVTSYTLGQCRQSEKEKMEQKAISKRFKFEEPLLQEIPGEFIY

CCC(=N\O)/C(C)=C/c1ccc(F)c(C)c1 [A-226]
inactive: residual activity [1] 100% | residual activity [2] 73% | residual activity [3] 100% | residual activity [4] 92% | inhibition [5] 10.2%

CCC(=N\O)/C(C)=C/c1ccc(F)cc1 [A-079]
inactive: inhibition [6] 8% | inhibition [7] 27% | inhibition [8] -3% | inhibition [9] 3% | inhibition [10] 7% | inhibition [11] 4% | inhibition [12] -3% | inhibition [13] 1% | inhibition [14] 3% | inhibition [15] 5% | inhibition [16] 11% | inhibition [17] 12% | inhibition [18] 6% | inhibition [19] 14% | inhibition [20] -4% | inhibition [21] -8% | inhibition [22] 8% | inhibition [23] 6% | inhibition [24] -1% | inhibition [25] -3% | inhibition [26] 29% | inhibition [27] 5% | inhibition [28] 1% | inhibition [29] 4% | inhibition [30] 6% | inhibition [31] -4% | inhibition [32] -5% | inhibition [33] -1% | inhibition [34] -2% | inhibition [35] 43%
